How the values were obtained:
AKT3 = biological target: T1, AKT3 (Homo sapiens, UniProt Q9Y243); assay: HotSpot in vitro kinase assay, AKT3; type: biochemical
T1 construct: purchased Reaction Biology Corporation

PDPK1 = biological target: T2, PDPK1 (Homo sapiens, UniProt O15530); assay: HotSpot in vitro kinase assay, PDPK1; type: biochemical
T2 construct: purchased Reaction Biology Corporation
T2 sequence (O15530 1-556): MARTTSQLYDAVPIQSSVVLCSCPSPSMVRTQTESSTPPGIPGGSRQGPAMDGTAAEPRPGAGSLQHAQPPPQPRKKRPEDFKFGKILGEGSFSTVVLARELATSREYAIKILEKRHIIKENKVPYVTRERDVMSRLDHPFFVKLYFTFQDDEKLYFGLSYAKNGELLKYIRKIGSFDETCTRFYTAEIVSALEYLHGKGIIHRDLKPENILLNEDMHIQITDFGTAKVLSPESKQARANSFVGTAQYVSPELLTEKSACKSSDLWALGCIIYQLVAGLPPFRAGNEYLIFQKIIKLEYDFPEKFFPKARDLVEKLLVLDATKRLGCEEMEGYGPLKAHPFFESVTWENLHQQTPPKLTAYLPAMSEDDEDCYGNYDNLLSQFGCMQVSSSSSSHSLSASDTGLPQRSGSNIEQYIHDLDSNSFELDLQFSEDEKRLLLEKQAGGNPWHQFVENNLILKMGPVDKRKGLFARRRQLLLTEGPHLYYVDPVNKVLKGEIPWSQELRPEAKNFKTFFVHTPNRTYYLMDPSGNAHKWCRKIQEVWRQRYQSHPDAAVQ

[1] = Parallel artificial membrane permeability assay (PAMPA); type: in vitro ADME; conditions: 100 μM
HaCat cells = assay: Cytotoxicity/viability, confluent HaCat cells; type: cell-based, human; conditions: 10 μM, fully confluent HaCat cells, up to 120 h
Procedure: Results are presented as mean±SEM odu as a percentage of the DMSO control (n=2 independent experiments each conducted in duplicate for C and 1 experiment conducted in duplicate for D). Results in B-D were compared by ANOVA, *p<0.05, **p<0.01, ***p<0.001, ****p<0.0001).
Cell proliferation and viability were determined using the Cell Titer 96® Aqueous One Solution and optical density was determined using a SpectraMax® M5e Molecular Devices multidetection microplate reader. […] The cells were then fixed and stained for activated caspases (red) and SYTOX Green (for integrity of plasma membrane) by Image-iT™ LIVE red Poly Caspase Detection kit. Nuclei were stained with Hoechst. Images were acquired by laser confocal microscope ZeissLive/DuoScan equipped with oil immersion objectives 63×1.1 and captured in an optical slice of 0.37 μm with appropriate filters. Alternatively, immunoblots were prepared and probed with antibodies to cleaved PARP-1 or cleaved caspase 8.

Akt, PDPK1, PLCγ = assay: HSV-induced phosphorylation of Akt, PDPK1 and PLCγ (confocal, biotinylation of cell surface proteins); type: cell-based, human; conditions: 10 μM, HaCat
PKCd = PKCd (Homo sapiens, UniProt Q05655); assay: HotSpot in vitro kinase assay, PKCd; conditions: read-out: Compound IC50, PKCd; in vitro kinase activity
Chain of PKCd (Q05655 whole entry): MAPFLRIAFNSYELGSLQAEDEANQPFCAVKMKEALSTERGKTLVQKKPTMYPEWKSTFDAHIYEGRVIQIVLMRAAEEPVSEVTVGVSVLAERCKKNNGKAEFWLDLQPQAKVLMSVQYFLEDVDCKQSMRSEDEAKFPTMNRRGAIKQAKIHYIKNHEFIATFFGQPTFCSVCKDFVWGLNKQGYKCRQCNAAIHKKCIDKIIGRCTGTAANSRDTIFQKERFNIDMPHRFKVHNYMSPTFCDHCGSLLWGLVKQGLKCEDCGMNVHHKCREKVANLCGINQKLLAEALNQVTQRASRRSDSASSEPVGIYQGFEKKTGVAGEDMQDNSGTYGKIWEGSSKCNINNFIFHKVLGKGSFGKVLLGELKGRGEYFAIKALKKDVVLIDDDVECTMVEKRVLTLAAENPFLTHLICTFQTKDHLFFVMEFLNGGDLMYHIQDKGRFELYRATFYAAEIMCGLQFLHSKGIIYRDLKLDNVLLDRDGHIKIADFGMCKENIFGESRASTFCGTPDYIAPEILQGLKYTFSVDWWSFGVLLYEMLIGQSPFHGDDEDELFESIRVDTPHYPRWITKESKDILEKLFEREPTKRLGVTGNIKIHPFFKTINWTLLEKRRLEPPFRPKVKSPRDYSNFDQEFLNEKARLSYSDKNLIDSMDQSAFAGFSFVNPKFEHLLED

T1 sequence (Q9Y243 whole entry): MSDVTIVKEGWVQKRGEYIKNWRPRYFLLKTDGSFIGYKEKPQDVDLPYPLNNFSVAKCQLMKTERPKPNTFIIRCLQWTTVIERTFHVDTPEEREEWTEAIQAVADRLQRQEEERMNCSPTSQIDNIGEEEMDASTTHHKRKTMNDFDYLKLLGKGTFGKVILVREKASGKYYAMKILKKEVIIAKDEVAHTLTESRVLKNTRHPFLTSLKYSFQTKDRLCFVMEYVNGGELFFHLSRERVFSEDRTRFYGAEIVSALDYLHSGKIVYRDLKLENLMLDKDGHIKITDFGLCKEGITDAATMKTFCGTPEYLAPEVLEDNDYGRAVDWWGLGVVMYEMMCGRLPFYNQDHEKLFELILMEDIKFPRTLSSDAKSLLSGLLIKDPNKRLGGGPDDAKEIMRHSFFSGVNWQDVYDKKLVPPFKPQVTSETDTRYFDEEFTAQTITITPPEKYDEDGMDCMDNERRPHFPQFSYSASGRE

In the case of `CO[C@@H]1[C@H](N(C)C(=O)CCC(=O)NCc2cn(CCCS(=O)(=O)[O-])nn2)C[C@H]2O[C@]1(C)n1c3ccccc3c3c4c(c5c6ccccc6n2c5c31)C(=O)NC4.[Na+]` [CIMSS], the IC50 (AKT3; in vitro kinase activity, read-out: Compound IC50, AKT3) is reported as 157 nM, the inhibition at 10 µM (AKT3; read-out: inhibition of Akt3) is reported as greater than 75% and the “IC50 for PDPK1 compared with staurosporine” value (PDPK1) is reported as “comparable”. The IC50 (PDPK1; in vitro kinase activity, read-out: Compound IC50, PDPK1) was 0.278 nM, the inhibition at 10 µM (PDPK1; read-out: inhibition of PDPK1) was greater than 75% and the “Recover %, PAMPA” value [1] was 83%. For the same molecule, the cytotoxicity (HaCat cells) was “little or no cytotoxicity”, the “pPDPK1 and pPLCγ signal by confocal microscopy” value (Akt, PDPK1, PLCγ; 15 and 30 minutes following viral infection) was “inhibited” and the “phosphorylation of PDPK1, PLCγ and Akt in the membrane fraction” value (Akt, PDPK1, PLCγ; 15 minutes of HSV exposure, biotinylation) was “reduced”. It also gave an IC50 (PKCd) of 3.64 nM.

From patent US20250025473A1 (priority 2021, published 2025)
